Source: US10392368B2, “Pyrazolo and triazolo bicyclic compounds as JAK kinase inhibitors” (THERAVANCE BIOPHARMA R&D IP, LLC, priority 2017, dated 2019)

Columns and labels:
[1] = tested on: IL-2 stimulated pSTAT5 in Tall-1 T cells; test: Cellular JAK3 potency assay: inhibition of IL-2 stimulated pSTAT5 in Tall-1 T cells; assay type: cell-based, human; settings: IL-2 stimulated pSTAT5, Tall-1 T cells
Procedure, shortened: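 Tall-1 human T cells (45,000/well) in phenol red-free DMEM with 10% FBS were preincubated with compound 1 h at 37 °C, then stimulated with IL-2 (final 300 ng/ml) for 30 min. Lysate pSTAT5 read by AlphaLisa; IC50 from inhibition curves, reported as pIC50 (mean±SD).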

[2] = target: T1, Tyk2 (Homo sapiens, UniProt P29597); test: Biochemical Tyk2 kinase assay (LanthaScreen)
T1 construct: GST; purchased Life Technologies
Procedure, shortened: (§1)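 GST-JAK + GFP-STAT1 peptide + cpd, 1 h preinc RT; ATP start, 1% DMSO, 1 h RT; stop 10 mM EDTA + 2 nM Tb-anti-pSTAT1; 1 h; TR-FRET 520/495. % inhib vs DMSO/background → IC50 (4-PL) → pKi (Cheng-Prusoff).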

[3] = target: T2, JAK1 (Homo sapiens, UniProt P23458); test: Biochemical JAK1 kinase assay (LanthaScreen)
T2 construct: GST; purchased Life Technologies
Procedure, shortened: as §1

[4] = target: T3, JAK3 (Homo sapiens, UniProt P52333); test: Biochemical JAK3 kinase assay (LanthaScreen); design: GST; purchased Life Technologies; settings: for JAK3 (pKi)-JAK1 (pKi): selectivity JAK3 over JAK1, difference of pKi
T3 sequence (P52333 1-1124): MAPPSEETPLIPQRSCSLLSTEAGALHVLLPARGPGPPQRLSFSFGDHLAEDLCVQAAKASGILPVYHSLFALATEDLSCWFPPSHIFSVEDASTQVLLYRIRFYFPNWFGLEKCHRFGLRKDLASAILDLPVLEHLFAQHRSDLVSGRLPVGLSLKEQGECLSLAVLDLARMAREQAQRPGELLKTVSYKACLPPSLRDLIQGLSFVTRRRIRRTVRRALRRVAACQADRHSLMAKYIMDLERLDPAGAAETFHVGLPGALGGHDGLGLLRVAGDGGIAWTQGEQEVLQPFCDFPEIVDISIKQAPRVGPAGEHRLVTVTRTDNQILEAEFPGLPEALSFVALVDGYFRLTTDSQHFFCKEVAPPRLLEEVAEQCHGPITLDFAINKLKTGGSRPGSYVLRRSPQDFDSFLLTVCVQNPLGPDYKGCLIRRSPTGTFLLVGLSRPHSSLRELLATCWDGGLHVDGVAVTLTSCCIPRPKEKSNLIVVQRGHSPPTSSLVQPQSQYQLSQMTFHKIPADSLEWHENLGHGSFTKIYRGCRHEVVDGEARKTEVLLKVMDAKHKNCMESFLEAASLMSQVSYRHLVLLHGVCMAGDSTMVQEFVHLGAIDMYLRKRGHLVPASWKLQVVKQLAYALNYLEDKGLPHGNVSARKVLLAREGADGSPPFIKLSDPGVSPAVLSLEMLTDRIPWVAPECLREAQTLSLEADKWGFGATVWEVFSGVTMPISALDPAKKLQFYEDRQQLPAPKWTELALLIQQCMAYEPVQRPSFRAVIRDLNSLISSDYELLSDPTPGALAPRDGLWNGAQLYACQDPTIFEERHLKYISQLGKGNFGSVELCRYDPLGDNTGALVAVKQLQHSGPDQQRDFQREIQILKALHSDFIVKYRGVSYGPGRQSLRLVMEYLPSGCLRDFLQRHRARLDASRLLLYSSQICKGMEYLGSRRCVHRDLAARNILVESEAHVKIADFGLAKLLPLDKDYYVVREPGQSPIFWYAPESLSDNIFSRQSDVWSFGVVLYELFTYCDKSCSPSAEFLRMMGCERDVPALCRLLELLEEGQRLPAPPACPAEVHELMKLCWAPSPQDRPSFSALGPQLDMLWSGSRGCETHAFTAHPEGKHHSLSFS
Procedure, shortened: as §1

[5] = target: T4, JAK2 (Homo sapiens, UniProt O60674); test: Biochemical JAK2 kinase assay (LanthaScreen)
T4 construct: GST; purchased Life Technologies
Procedure, shortened: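 GST-tagged recombinant JAK2 pre-incubated 1 h at ambient temperature with compound and GFP-STAT1 peptide in HEPES pH 7.5/MgCl2 buffer, then ATP added for a 1 h reaction with 1% DMSO. TR-FRET read after EDTA and Tb-anti-pSTAT1 (pTyr701) addition; IC50 from 4-parameter fit, converted to pKi by Cheng-Prusoff.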

T1 sequence (P29597 whole entry): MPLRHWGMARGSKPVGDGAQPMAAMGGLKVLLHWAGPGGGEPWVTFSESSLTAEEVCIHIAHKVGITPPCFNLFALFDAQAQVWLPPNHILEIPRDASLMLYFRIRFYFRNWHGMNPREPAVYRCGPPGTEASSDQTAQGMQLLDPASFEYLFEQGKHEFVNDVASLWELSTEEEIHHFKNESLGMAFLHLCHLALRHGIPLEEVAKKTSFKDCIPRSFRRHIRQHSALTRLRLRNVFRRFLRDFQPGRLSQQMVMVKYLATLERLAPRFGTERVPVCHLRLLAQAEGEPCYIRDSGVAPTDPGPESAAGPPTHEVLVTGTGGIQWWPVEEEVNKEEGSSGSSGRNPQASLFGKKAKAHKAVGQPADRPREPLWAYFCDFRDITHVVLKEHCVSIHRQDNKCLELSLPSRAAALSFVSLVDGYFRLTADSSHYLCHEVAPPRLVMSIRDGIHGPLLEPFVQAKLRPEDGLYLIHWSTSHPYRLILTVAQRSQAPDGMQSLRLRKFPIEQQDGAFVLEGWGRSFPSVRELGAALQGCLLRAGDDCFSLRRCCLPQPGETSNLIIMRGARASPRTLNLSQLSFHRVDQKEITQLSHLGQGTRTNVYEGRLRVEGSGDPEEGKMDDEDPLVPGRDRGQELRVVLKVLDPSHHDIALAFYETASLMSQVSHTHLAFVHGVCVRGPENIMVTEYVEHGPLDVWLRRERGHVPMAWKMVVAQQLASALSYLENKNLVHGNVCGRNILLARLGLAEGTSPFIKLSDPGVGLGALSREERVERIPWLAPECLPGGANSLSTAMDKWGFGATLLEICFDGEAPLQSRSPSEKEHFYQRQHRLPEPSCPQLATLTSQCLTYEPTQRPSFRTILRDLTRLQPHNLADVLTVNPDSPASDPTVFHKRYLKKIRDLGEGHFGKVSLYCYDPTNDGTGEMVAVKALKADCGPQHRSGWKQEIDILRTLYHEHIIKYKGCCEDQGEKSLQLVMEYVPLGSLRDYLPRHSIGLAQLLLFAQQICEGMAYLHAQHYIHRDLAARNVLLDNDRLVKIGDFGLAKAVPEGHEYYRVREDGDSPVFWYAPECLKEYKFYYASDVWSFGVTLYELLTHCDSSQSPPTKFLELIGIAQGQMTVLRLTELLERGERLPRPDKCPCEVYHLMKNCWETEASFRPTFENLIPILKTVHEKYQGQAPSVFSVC
T2 sequence (P23458 whole entry): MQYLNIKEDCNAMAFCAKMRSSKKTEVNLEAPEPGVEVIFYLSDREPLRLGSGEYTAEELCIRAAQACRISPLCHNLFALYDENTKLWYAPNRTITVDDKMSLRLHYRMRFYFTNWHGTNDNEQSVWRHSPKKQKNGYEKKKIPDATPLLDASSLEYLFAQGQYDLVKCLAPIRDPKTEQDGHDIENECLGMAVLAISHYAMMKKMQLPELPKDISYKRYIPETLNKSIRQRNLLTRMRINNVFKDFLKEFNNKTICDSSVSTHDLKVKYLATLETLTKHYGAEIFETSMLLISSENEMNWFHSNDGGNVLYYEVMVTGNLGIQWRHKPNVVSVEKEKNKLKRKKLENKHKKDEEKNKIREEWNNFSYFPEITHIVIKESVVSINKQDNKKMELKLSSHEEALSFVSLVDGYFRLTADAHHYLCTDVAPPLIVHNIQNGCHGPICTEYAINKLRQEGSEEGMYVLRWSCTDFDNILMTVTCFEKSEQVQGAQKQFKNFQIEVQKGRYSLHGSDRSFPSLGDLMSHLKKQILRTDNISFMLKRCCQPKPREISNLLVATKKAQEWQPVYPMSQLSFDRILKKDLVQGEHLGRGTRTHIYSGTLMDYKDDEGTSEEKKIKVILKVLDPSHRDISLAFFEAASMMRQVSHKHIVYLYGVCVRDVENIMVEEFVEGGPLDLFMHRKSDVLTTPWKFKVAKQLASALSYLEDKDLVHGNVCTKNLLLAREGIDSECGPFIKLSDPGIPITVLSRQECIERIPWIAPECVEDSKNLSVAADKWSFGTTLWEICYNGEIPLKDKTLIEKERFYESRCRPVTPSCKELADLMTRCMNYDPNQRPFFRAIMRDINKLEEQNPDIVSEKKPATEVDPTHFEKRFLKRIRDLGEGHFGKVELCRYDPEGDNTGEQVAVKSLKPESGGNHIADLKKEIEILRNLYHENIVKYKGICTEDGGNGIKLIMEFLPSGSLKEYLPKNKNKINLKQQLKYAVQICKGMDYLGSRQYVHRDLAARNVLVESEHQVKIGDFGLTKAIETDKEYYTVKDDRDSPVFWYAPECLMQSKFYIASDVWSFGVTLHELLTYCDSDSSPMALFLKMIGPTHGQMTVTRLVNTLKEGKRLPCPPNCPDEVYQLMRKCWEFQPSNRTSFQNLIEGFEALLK
T4 sequence (O60674 whole entry): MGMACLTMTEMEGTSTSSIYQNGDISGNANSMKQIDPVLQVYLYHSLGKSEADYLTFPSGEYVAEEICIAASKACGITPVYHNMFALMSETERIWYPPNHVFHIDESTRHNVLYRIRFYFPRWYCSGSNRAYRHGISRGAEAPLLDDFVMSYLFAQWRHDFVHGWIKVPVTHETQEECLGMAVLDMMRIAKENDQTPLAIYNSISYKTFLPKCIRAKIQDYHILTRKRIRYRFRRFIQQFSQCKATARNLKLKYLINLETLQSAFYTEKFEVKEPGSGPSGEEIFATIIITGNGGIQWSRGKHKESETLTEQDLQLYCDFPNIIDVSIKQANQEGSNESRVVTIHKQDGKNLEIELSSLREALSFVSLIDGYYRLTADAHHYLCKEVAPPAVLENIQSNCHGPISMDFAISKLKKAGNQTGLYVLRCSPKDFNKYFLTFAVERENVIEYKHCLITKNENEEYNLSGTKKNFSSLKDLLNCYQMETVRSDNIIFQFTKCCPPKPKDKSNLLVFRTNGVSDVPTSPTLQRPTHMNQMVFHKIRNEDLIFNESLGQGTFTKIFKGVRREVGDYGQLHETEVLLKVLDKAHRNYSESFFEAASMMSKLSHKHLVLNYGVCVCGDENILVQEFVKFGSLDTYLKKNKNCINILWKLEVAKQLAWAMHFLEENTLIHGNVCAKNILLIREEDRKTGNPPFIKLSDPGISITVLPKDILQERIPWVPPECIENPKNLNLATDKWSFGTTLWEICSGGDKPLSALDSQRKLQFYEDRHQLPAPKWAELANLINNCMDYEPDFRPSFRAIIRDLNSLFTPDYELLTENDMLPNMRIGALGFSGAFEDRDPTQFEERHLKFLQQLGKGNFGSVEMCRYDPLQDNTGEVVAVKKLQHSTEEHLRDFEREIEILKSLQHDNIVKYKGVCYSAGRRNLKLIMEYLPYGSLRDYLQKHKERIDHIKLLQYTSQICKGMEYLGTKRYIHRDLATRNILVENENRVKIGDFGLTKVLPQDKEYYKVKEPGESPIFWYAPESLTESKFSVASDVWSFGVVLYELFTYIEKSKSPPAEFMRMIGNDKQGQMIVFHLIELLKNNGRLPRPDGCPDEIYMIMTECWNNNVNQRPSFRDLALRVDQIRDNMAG

Compound | Tall-1 (pIC50) [1] | Tyk 2 (pKi) [2] | JAK 1 (pKi) [3] | JAK 3 (pKi) [4] | JAK3 (pKi)-JAK1 (pKi) [4] | JAK 2 (pKi) [5]
CN(C)CC=CC(=O)N1CCCC(Oc2cc(-c3ccc(O)c(F)c3)cc3[nH]ncc23)C1 (stereo not drawn) [Compound 8-4] | B (a pIC50 value between 6.7 (included) and 7.5 (IC50 between 200 nM and 32 nM)) | E (a pKi value of 7 or below (Ki of 100 nM or above)) | E (a pKi value of 7 or below (Ki of 100 nM or above)) | B (a pKi value between 9 and 10 (Ki between 1 nM and 0.1 nM)) | B (a value of 2.3 to 3) | D (a pKi value between 7 and 8 (Ki between 100 nM and 10 nM))
C=CC(=O)N1CCCC(Oc2cc(-c3ccc(O)c(F)c3)cc3[nH]ncc23)C1 (stereo not drawn) [Compound 8-5] | A (a pIC50 value≥7.5 (IC50≤32 nM)) | E (a pKi value of 7 or below (Ki of 100 nM or above)) | E (a pKi value of 7 or below (Ki of 100 nM or above)) | A (a pKi value≥10 (Ki≤0.1 nM)) | A (a value of 3 or above) | D (a pKi value between 7 and 8 (Ki between 100 nM and 10 nM))
C=CC(=O)N1CCCC(Oc2nc(-c3ccc(O)cc3)cc3[nH]ncc23)C1 (stereo not drawn) [Compound 8-7] | B (a pIC50 value between 6.7 (included) and 7.5 (IC50 between 200 nM and 32 nM)) | E (a pKi value of 7 or below (Ki of 100 nM or above)) | E (a pKi value of 7 or below (Ki of 100 nM or above)) | B (a pKi value between 9 and 10 (Ki between 1 nM and 0.1 nM)) | A (a value of 3 or above) | D (a pKi value between 7 and 8 (Ki between 100 nM and 10 nM))
C=CC(=O)N1CCC[C@H](Oc2nc(-c3ccc(O)c(F)c3)cc3[nH]ncc23)C1 [Compound 8-11] | A (a pIC50 value≥7.5 (IC50≤32 nM)) | E (a pKi value of 7 or below (Ki of 100 nM or above)) | D (a pKi value between 7 and 8 (Ki between 100 nM and 10 nM)) | A (a pKi value≥10 (Ki≤0.1 nM)) | B (a value of 2.3 to 3) | D (a pKi value between 7 and 8 (Ki between 100 nM and 10 nM))
C=CC(=O)N1CCC[C@H](Oc2cc(-c3ccc(O)c(Cl)c3)nc3[nH]ncc23)C1 [Compound 8-14] | B (a pIC50 value between 6.7 (included) and 7.5 (IC50 between 200 nM and 32 nM)) | E (a pKi value of 7 or below (Ki of 100 nM or above)) | E (a pKi value of 7 or below (Ki of 100 nM or above)) | A (a pKi value≥10 (Ki≤0.1 nM)) | A (a value of 3 or above) | E (a pKi value of 7 or below (Ki of 100 nM or above))
C=CC(=O)N1C2CCC1CC(Oc1cc(-c3ccc(O)cc3)cc3[nH]ncc13)C2 (stereo not drawn) [Compound 9-1] | A (a pIC50 value≥7.5 (IC50≤32 nM)) | E (a pKi value of 7 or below (Ki of 100 nM or above)) | E (a pKi value of 7 or below (Ki of 100 nM or above)) | A (a pKi value≥10 (Ki≤0.1 nM)) | A (a value of 3 or above) | D (a pKi value between 7 and 8 (Ki between 100 nM and 10 nM))
C=CC(=O)N1C2CCC1CC(Oc1cc(-c3ccc(O)c(Cl)c3)cc3[nH]ncc13)C2 (stereo not drawn) [Compound 9-2] | A (a pIC50 value≥7.5 (IC50≤32 nM)) | E (a pKi value of 7 or below (Ki of 100 nM or above)) | E (a pKi value of 7 or below (Ki of 100 nM or above)) | B (a pKi value between 9 and 10 (Ki between 1 nM and 0.1 nM)) | A (a value of 3 or above) | E (a pKi value of 7 or below (Ki of 100 nM or above))
C=CC(=O)N1C2CCC1CC(Oc1cc(-c3ccc(O)c(F)c3)cc3[nH]ncc13)C2 (stereo not drawn) [Compound 9-4] | A (a pIC50 value≥7.5 (IC50≤32 nM)) | E (a pKi value of 7 or below (Ki of 100 nM or above)) | E (a pKi value of 7 or below (Ki of 100 nM or above)) | A (a pKi value≥10 (Ki≤0.1 nM)) | A (a value of 3 or above) | C (a pKi value between 8 and 9 (Ki between 10 nM and 1 nM))
